Results: patent US20260262643A1, “HERBICIDAL BENZOXAZINES” (FMC CORPORATION, priority 2022, published 2026)

How the values were obtained:
[1] = system: barnyardgrass; assay: Test C postemergence; format: in vivo, Echinochloa crusgalli; settings: 10 days, 0 to 100 scale (0 no effect, 100 complete control)
Summary of the method: (§1)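 Pre: seeds in loam/sand, directed soil spray. Post: 1–2 leaf plants, 2–10 cm. Cmpd in non-phytotoxic solvent + surfactant. Greenhouse 10 d; visual rating vs untreated, 0 = none, 100 = complete control.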

[2] = system: pigweed, palmer; assay: Test C preemergence; format: in vivo, Amaranthus palmeri; settings: for Pigweed, Palmer plant response rating: 500 g ai/ha, preemergence, 0 to 100 scale (0 no effect, 100 complete control); for Plant response rating, Pigweed, Palmer: Preemergence, 125 g ai/ha, 0 to 100 scale, 0 no effect, 100 complete control
Summary of the method: as §1

[3] = system: ducksalad; assay: Test D flooded paddy test; format: in vivo, Heteranthera limosa; settings: 250 g ai/ha, applied to paddy water, visual rating after 13 to 14 days, scale 0 to 100 (0 no effect, 100 complete control)
Summary of the method: (§2)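 Compounds go straight into paddy water over 2-leaf plants in pots flooded to 3 cm. Greenhouse holding lasts 13 to 14 days. Injury is scored by eye against controls from 0 (none) to 100 (complete control).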

[4] = system: sedge, umbrella; assay: Test D flooded paddy test; format: in vivo, Cyperus difformis; settings: 250 g ai/ha, applied to paddy water, visual rating after 13 to 14 days, scale 0 to 100 (0 no effect, 100 complete control)
Summary of the method: as §2

[5] = system: blackgrass; assay: Test C postemergence; format: in vivo, Alopecurus myosuroides; settings: 10 days, 0 to 100 scale (0 no effect, 100 complete control)
Summary of the method: as §1

[6] = system: rice; assay: Test D flooded paddy test; format: in vivo, Oryza sativa; settings: 250 g ai/ha, applied to paddy water, visual rating after 13 to 14 days, scale 0 to 100 (0 no effect, 100 complete control)
Summary of the method: as §2

[7] = system: oat, wild; assay: Test C preemergence; format: in vivo, Avena fatua; settings: for Oat, Wild plant response rating: 500 g ai/ha, preemergence, 0 to 100 scale (0 no effect, 100 complete control); for Plant response rating, Oat, Wild: Preemergence, 125 g ai/ha, 0 to 100 scale, 0 no effect, 100 complete control
Summary of the method: as §1

[8] = system: kochia; assay: Test C preemergence; format: in vivo, Bassia scoparia; settings: for Kochia plant response rating: 500 g ai/ha, preemergence, 0 to 100 scale (0 no effect, 100 complete control); for Plant response rating, Kochia: Preemergence, 125 g ai/ha, 0 to 100 scale, 0 no effect, 100 complete control
Summary of the method: as §1

[9] = system: green foxtail; assay: Test C preemergence; format: in vivo, Setaria viridis; settings: for Foxtail, Green plant response rating: 500 g ai/ha, preemergence, 0 to 100 scale (0 no effect, 100 complete control); for Plant response rating, Foxtail, Green: Preemergence, 125 g ai/ha, 0 to 100 scale, 0 no effect, 100 complete control
Summary of the method: as §1

[10] = system: green foxtail; assay: Test C postemergence; format: in vivo, Setaria viridis; settings: 10 days, 0 to 100 scale (0 no effect, 100 complete control)
Summary of the method: as §1

[11] = system: galium; assay: Test C postemergence; format: in vivo, Galium aparine; settings: 0 to 100 scale (0 no effect, 100 complete control), 10 days
Summary of the method: as §1

[12] = system: barnyardgrass; assay: Test C preemergence; format: in vivo, Echinochloa crusgalli; settings: for Barnyardgrass plant response rating: 500 g ai/ha, preemergence, 0 to 100 scale (0 no effect, 100 complete control); for Plant response rating, Barnyardgrass: Preemergence, 125 g ai/ha, 0 to 100 scale, 0 no effect, 100 complete control
Summary of the method: as §1

[13] = system: wheat; assay: Test C preemergence; format: in vivo, Triticum aestivum; settings: for Wheat plant response rating: 500 g ai/ha, preemergence, 0 to 100 scale (0 no effect, 100 complete control); for Plant response rating, Wheat: Preemergence, 125 g ai/ha, 0 to 100 scale, 0 no effect, 100 complete control
Summary of the method: as §1

[14] = system: oat, wild; assay: Test C postemergence; format: in vivo, Avena fatua; settings: 10 days, 0 to 100 scale (0 no effect, 100 complete control)
Summary of the method: as §1

[15] = system: ragweed; assay: Test C preemergence; format: in vivo, Ambrosia artemisiifolia; settings: for Ragweed plant response rating: 500 g ai/ha, preemergence, 0 to 100 scale (0 no effect, 100 complete control); for Plant response rating, Ragweed: Preemergence, 125 g ai/ha, 0 to 100 scale, 0 no effect, 100 complete control
Summary of the method: as §1

[16] = system: pigweed, palmer; assay: Test C postemergence; format: in vivo, Amaranthus palmeri; settings: 10 days, 0 to 100 scale (0 no effect, 100 complete control)
Summary of the method: as §1

[17] = system: soybean; assay: Test C preemergence; format: in vivo, Glycine max; settings: for Soybean plant response rating: 500 g ai/ha, preemergence, 0 to 100 scale (0 no effect, 100 complete control); for Plant response rating, Soybean: Preemergence, 125 g ai/ha, 0 to 100 scale, 0 no effect, 100 complete control
Summary of the method: as §1

[18] = system: soybean; assay: Test C postemergence; format: in vivo, Glycine max; settings: Postemergence, 125 g ai/ha; 0 to 100 scale (0 no effect, 100 complete control), 10 days
Summary of the method: as §1

[19] = system: barnyardgrass; assay: Test D flooded paddy test; format: in vivo, Echinochloa crus-galli; settings: 250 g ai/ha, applied to paddy water, visual rating after 13 to 14 days, scale 0 to 100 (0 no effect, 100 complete control)
Summary of the method: as §2

[20] = system: horseweed; assay: Test C postemergence; format: in vivo, Erigeron canadensis; settings: 10 days, 0 to 100 scale (0 no effect, 100 complete control)
Summary of the method: as §1

[21] = system: corn; assay: Test C preemergence; format: in vivo, Zea mays; settings: for Corn plant response rating: 500 g ai/ha, preemergence, 0 to 100 scale (0 no effect, 100 complete control); for Plant response rating, Corn: Preemergence, 125 g ai/ha, 0 to 100 scale, 0 no effect, 100 complete control
Summary of the method: as §1

[22] = system: ryegrass, Italian; assay: Test C preemergence; format: in vivo, Lolium multiflorum; settings: for Ryegrass, Italian plant response rating: 500 g ai/ha, preemergence, 0 to 100 scale (0 no effect, 100 complete control); for Plant response rating, Ryegrass, Italian: Preemergence, 125 g ai/ha, 0 to 100 scale, 0 no effect, 100 complete control
Summary of the method: as §1

[23] = system: ragweed; assay: Test C postemergence; format: in vivo, Ambrosia artemisiifolia; settings: Postemergence, 125 g ai/ha; 0 to 100 scale (0 no effect, 100 complete control), 10 days
Summary of the method: as §1

[24] = system: kochia; assay: Test C postemergence; format: in vivo, Bassia scoparia; settings: 10 days, 0 to 100 scale (0 no effect, 100 complete control)
Summary of the method: as §1

[25] = system: ryegrass, Italian; assay: Test C postemergence; format: in vivo, Lolium multiflorum; settings: Postemergence, 125 g ai/ha; 0 to 100 scale (0 no effect, 100 complete control), 10 days
Summary of the method: as §1

[26] = system: blackgrass; assay: Test C preemergence; format: in vivo, Alopecurus myosuroides; settings: for Blackgrass plant response rating: 500 g ai/ha, preemergence, 0 to 100 scale (0 no effect, 100 complete control); for Plant response rating, Blackgrass: Preemergence, 125 g ai/ha, 0 to 100 scale, 0 no effect, 100 complete control
Summary of the method: as §1

[27] = system: corn; assay: Test C postemergence; format: in vivo, Zea mays; settings: 10 days, 0 to 100 scale (0 no effect, 100 complete control)
Summary of the method: as §1

[28] = system: wheat; assay: Test C postemergence; format: in vivo, Triticum aestivum; settings: Postemergence, 125 g ai/ha; 0 to 100 scale (0 no effect, 100 complete control), 10 days
Summary of the method: as §1

## COC[C@H]1CN(C(=O)c2cc(-n3cnc(C(C)(C)O)n3)ccc2OC)c2cccc(Cl)c2O1 [Compound 408]
[1]; 500 g ai/ha, postemergence
  Plant response rating, Barnyardgrass: 60
[1]; Postemergence, 125 g ai/ha
  Plant response rating, Barnyardgrass: 10
[2]
  Pigweed, Palmer plant response rating: 100
  Plant response rating, Pigweed, Palmer: 100
[3]
  Plant response rating, Ducksalad (Flood): 90
[4]
  Plant response rating, Sedge, Umbrella (Flood): 98
[5]; 500 g ai/ha, postemergence
  Plant response rating, Blackgrass: 70
[5]; Postemergence, 125 g ai/ha
  Plant response rating, Blackgrass: 0
[6]
  Plant response rating, Rice (Flood): 15
[7]
  Oat, Wild plant response rating: 60
  Plant response rating, Oat, Wild: 30
[8]
  Kochia plant response rating: 100
  Plant response rating, Kochia: 70
[9]
  Foxtail, Green plant response rating: 100
  Plant response rating, Foxtail, Green: 100
[10]; 500 g ai/ha, postemergence
  Plant response rating, Foxtail, Green: 60
[10]; Postemergence, 125 g ai/ha
  Plant response rating, Foxtail, Green: 20
[11]; Postemergence, 125 g ai/ha
  Plant response rating, Galium: 100
[12]
  Barnyardgrass plant response rating: 100
  Plant response rating, Barnyardgrass: 60
[13]
  Wheat plant response rating: 60
  Plant response rating, Wheat: 20
[14]; 500 g ai/ha, postemergence
  Plant response rating, Oat, Wild: 90
[14]; Postemergence, 125 g ai/ha
  Plant response rating, Oat, Wild: 30
[15]
  Ragweed plant response rating: 90
  Plant response rating, Ragweed: 60
[16]; 500 g ai/ha, postemergence
  Plant response rating, Pigweed, Palmer: 80
[16]; Postemergence, 125 g ai/ha
  Plant response rating, Pigweed, Palmer: 80
[17]
  Soybean plant response rating: 100
  Plant response rating, Soybean: 80
[18]
  Plant response rating, Soybean: 100
[19]
  Plant response rating, Barnyardgrass (Flood): 10
[20]; 500 g ai/ha, postemergence
  Plant response rating, Horseweed: 60
[20]; Postemergence, 125 g ai/ha
  Plant response rating, Horseweed: 0
[21]
  Corn plant response rating: 60
  Plant response rating, Corn: 0
[22]
  Ryegrass, Italian plant response rating: 80
  Plant response rating, Ryegrass, Italian: 60
[23]
  Plant response rating, Ragweed: 50
[24]; 500 g ai/ha, postemergence
  Plant response rating, Kochia: 90
[24]; Postemergence, 125 g ai/ha
  Plant response rating, Kochia: 70
[25]
  Plant response rating, Ryegrass, Italian: 70
[26]
  Blackgrass plant response rating: 80
  Plant response rating, Blackgrass: 10
[27]; 500 g ai/ha, postemergence
  Plant response rating, Corn: 80
[27]; Postemergence, 125 g ai/ha
  Plant response rating, Corn: 10
[28]
  Plant response rating, Wheat: 30

## CCOC[C@H]1CN(C(=O)c2cc(-n3cnc(CC)n3)ccc2C)c2cccc(Cl)c2O1 [Compound 412]
[1]; 500 g ai/ha, postemergence
  Plant response rating, Barnyardgrass: 80
[1]; Postemergence, 125 g ai/ha
  Plant response rating, Barnyardgrass: 40
[2]
  Pigweed, Palmer plant response rating: 100
  Plant response rating, Pigweed, Palmer: 100
[3]
  Plant response rating, Ducksalad (Flood): 75
[4]
  Plant response rating, Sedge, Umbrella (Flood): 90
[5]; 500 g ai/ha, postemergence
  Plant response rating, Blackgrass: 90
[5]; Postemergence, 125 g ai/ha
  Plant response rating, Blackgrass: 60
[6]
  Plant response rating, Rice (Flood): 10
[7]
  Oat, Wild plant response rating: 0
  Plant response rating, Oat, Wild: 0
[8]
  Kochia plant response rating: 80
  Plant response rating, Kochia: 30
[9]
  Foxtail, Green plant response rating: 100
  Plant response rating, Foxtail, Green: 100
[10]; 500 g ai/ha, postemergence
  Plant response rating, Foxtail, Green: 90
[10]; Postemergence, 125 g ai/ha
  Plant response rating, Foxtail, Green: 80
[11]; 500 g ai/ha, postemergence
  Plant response rating, Galium: 100
[11]; Postemergence, 125 g ai/ha
  Plant response rating, Galium: 100
[12]
  Barnyardgrass plant response rating: 80
  Plant response rating, Barnyardgrass: 60
[13]
  Wheat plant response rating: 30
  Plant response rating, Wheat: 30
[14]; 500 g ai/ha, postemergence
  Plant response rating, Oat, Wild: 50
[14]; Postemergence, 125 g ai/ha
  Plant response rating, Oat, Wild: 20
[15]
  Ragweed plant response rating: 100
  Plant response rating, Ragweed: 50
[16]; 500 g ai/ha, postemergence
  Plant response rating, Pigweed, Palmer: 90
[16]; Postemergence, 125 g ai/ha
  Plant response rating, Pigweed, Palmer: 80
[17]
  Soybean plant response rating: 90
  Plant response rating, Soybean: 60
[18]
  Plant response rating, Soybean: 100
[19]
  Plant response rating, Barnyardgrass (Flood): 25
[20]; 500 g ai/ha, postemergence
  Plant response rating, Horseweed: 30
[20]; Postemergence, 125 g ai/ha
  Plant response rating, Horseweed: 20
[21]
  Corn plant response rating: 30
  Plant response rating, Corn: 0
[22]
  Ryegrass, Italian plant response rating: 90
  Plant response rating, Ryegrass, Italian: 80
[23]
  Plant response rating, Ragweed: 90
[24]; 500 g ai/ha, postemergence
  Plant response rating, Kochia: 90
[24]; Postemergence, 125 g ai/ha
  Plant response rating, Kochia: 80
[25]
  Plant response rating, Ryegrass, Italian: 70
[26]
  Blackgrass plant response rating: 90
  Plant response rating, Blackgrass: 50
[27]; 500 g ai/ha, postemergence
  Plant response rating, Corn: 20
[27]; Postemergence, 125 g ai/ha
  Plant response rating, Corn: 20
[28]
  Plant response rating, Wheat: 20
